Laboratory results: patent US12435060B2, “Acylamino bridged heterocyclic compound, and composition and application thereof” (BEIJING SCITECH-MQ PHARMACEUTICALS LIMITED, priority 2019, dated 2025)

System: HT29 cells
Test: Inhibition of cell necrosis (CCK8 method), induced programmed necrosis of HT29 cells
Format: cell-based
Conditions: Homo sapiens, HT-29; rescue from necrosis induced by TNF-α 20 ng/mL, AT-406 1 μM, Z-VAD-FMK 20 μM; 16-20 hours; CCK-8, OD 450 nm
Outline: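 HT29 cells in McCOY's 5A with 10% FBS were pre-treated for 30 min with compound (9 fourfold steps, 25000 to 0.38 nM final, 0.25% DMSO). Necrosis was then induced with TNF-α 20 ng/mL, AT-406 1 μM and Z-VAD-FMK 20 μM for 16-20 h. Viability was read by CCK-8 OD450, normalized between uninduced and induced wells, and IC50 was curve-fitted.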

Structure (SMILES) | IC50 [nM]
COCCN(C)c1ccc(C)c(-c2ccnc(NC(=O)c3nnc(Cc4ccccc4)[nH]3)c2)c1 [Example 55, 5-benzyl-N-(4-(5-((2-methoxyethyl)(methyl)amino)-2-methylphenyl)pyridin-2-yl)-4H-1,2,4-triazole-3-carboxamide] | 100 to 1000
O=C(Nc1cc(-c2cc(OCC3CCOCC3)ccc2Cl)ncn1)c1nnc(Cc2ccccc2F)[nH]1 [Example 467, 5-(2-fluorobenzyl)-N-(6-(2-chloro-5-((tetrahydro-2H-pyran-4-yl)methoxy)phenyl)pyrimidin-4-yl)-4H-1,2,4-triazole-3-carboxamide] | ≤ 100
CC(C)(O)CCCOc1ccc(Cl)c(-c2ccnc(NC(=O)c3nnc([C@H](O)c4ccccc4)[nH]3)c2)c1 [Example 477, (R)-N-(4-(2-chloro-5-((4-hydroxy-4-methylpentyl)oxy)phenyl)pyridin-2-yl)-5-(hydroxyl(phenyl)methyl)-4H-1,2,4-triazole-3-carboxamide] | 1000 to 10000
CC(C)(O)CCCOc1ccc(Cl)c(-c2ccnc(NC(=O)c3nnc(Cc4ccccc4F)[nH]3)c2)c1 [Example 338, N-(4-(2-chloro-5-((4-hydroxy-4-methylpentyl)oxy)phenyl)pyridin-2-yl)-5-(2-fluorobenzyl)-4H-1,2,4-triazole-3-carboxamide] | ≤ 100
COCCOc1ccc(Cl)c(-c2ccnc(NC(=O)c3nnc(CC4CCCCC4)[nH]3)c2)c1 [Example 382, N-(4-(2-chloro-5-(2-methoxyethoxy)phenyl)pyridin-2-yl)-5-(cyclohexylmethyl)-4H-1,2,4-triazole-3-carboxamide] | ≤ 100
COCCOc1ccc(C(F)(F)F)c(-c2ccnc(NC(=O)c3nnc(CC4CCCC4)[nH]3)c2)c1 [Example 281, 5-(cyclopentylmethyl)-N-(4-(5-(2-methoxyethoxy)-2-(trifluoromethyl)phenyl)pyridin-2-yl)-4H-1,2,4-triazole-3-carboxamide] | ≤ 100
CCOCCOc1ccc(C(F)(F)F)c(-c2ccnc(NC(=O)c3nnc(Cc4ccccc4F)[nH]3)c2)c1 [Example 284, 5-(2-fluorobenzyl)-N-(4-(5-(2-ethoxyethoxy)-2-(trifluoromethyl)phenyl)pyridin-2-yl)-4H-1,2,4-triazole-3-carboxamide] | ≤ 100
Cc1ccc(OCCCC(C)(C)O)cc1-c1cc(NC(=O)c2nnc(Cc3cccc(F)c3)[nH]2)ncn1 [Example 434, 5-(3-fluorobenzyl)-N-(6-(5-((4-hydroxy-4-methylpentyl)oxy)-2-methylphenyl)pyrimidin-4-yl)-4H-1,2,4-triazole-3-carboxamide] | ≤ 100
Cc1ccc(OCCCC(C)(C)O)cc1-c1ccnc(NC(=O)c2nnc(Cc3cccc(F)c3F)[nH]2)c1 [Example 202, 5-(2,3-difluorobenzyl)-N-(4-(5-((4-hydroxy-4-methylpentyl)oxy)-2-methylphenyl)pyridin-2-yl)-4H-1,2,4-triazole-3-carboxamide] | ≤ 100
Cc1ccc(OCCCCCCCCO)cc1-c1ccnc(NC(=O)c2nnc(Cc3ccccc3)[nH]2)c1 [Example 154, 5-benzyl-N-(4-(5-((8-hydroxyoctyl)oxy)-2-methylphenyl)pyridin-2-yl)-4H-1,2,4-triazole-3-carboxamide] | ≤ 100
CC(C)(C)OCCOc1ccc(Cl)c(-c2ccnc(NC(=O)c3nnc(Cc4ccccc4)[nH]3)c2)c1 [Example 391, 5-benzyl-N-(4-(5-(2-(tert-butoxy)ethoxy)-2-chlorophenyl)pyridin-2-yl)-4H-1,2,4-triazole-3-carboxamide] | ≤ 100
Cc1ccc(OCCCC2(O)CCCCC2)cc1-c1ccnc(NC(=O)c2nnc(Cc3ccccc3)[nH]2)c1 [Example 164, 5-benzyl-N-(4-(5-(3-(1-hydroxycyclohexyl)propoxy)-2-methylphenyl)pyridin-2-yl)-4H-1,2,4-triazole-3-carboxamide] | ≤ 100
